From the NIST ThermoML archive (doi:10.1016/j.jct.2014.12.022)

Test: molar heat capacity at constant pressure; xn = mol fraction of the nth substance listed
Settings: 100 kPa, Liquid, Small sample (50 mg) DSC

Cc1ccc(Cl)cc1 [4-chlorotoluene] + c1ccccc1
molar heat capacity at constant pressure [J/K/mol]
Settings | 293.15 K | 298.15 K | 303.15 K
x2 = 0.0912 | 170.37 | 172.42 | 174.55
x2 = 0.1226 | 168.6 | 170.58 | 172.63
x2 = 0.1657 | 166.22 | 168.12 | 170.06
x2 = 0.2012 | 164.3 | 166.15 | 168.01
x2 = 0.2374 | 162.4 | 164.19 | 165.99
x2 = 0.2675 | 160.86 | 162.61 | 164.35
x2 = 0.3135 | 158.57 | 160.26 | 161.93
x2 = 0.3456 | 157.02 | 158.69 | 160.3
x2 = 0.3702 | 155.87 | 157.51 | 159.08
x2 = 0.4231 | 153.47 | 155.06 | 156.56
x2 = 0.4657 | 151.63 | 153.19 | 154.63
x2 = 0.5093 | 149.83 | 151.35 | 152.74
x2 = 0.5346 | 148.82 | 150.33 | 151.68
x2 = 0.5723 | 147.36 | 148.85 | 150.16
x2 = 0.6022 | 146.25 | 147.72 | 148.99
x2 = 0.6357 | 145.04 | 146.49 | 147.73
x2 = 0.6701 | 143.84 | 145.27 | 146.49
x2 = 0.6989 | 142.86 | 144.29 | 145.48
x2 = 0.7224 | 142.08 | 143.51 | 144.68
x2 = 0.7564 | 140.98 | 142.41 | 143.56
x2 = 0.8096 | 139.31 | 140.75 | 141.89
x2 = 0.8213 | 138.95 | 140.4 | 141.54
x2 = 0.8543 | 137.95 | 139.41 | 140.56
x2 = 0.8886 | 136.92 | 138.42 | 139.57
